The source made the active and inactive calls. No rule for the calls is given here.

The subject of this test is West Nile virus-infected cells, virus titer reduction. The test is described as follows: West Nile virus yield reduction, cell-based, synthesized compounds (AID 2065). The following applies: at 20 µM (top of the series).
With `CN(C)CCCN1c2ccc([N+](=O)[O-])cc2CCc2cc([N+](=O)[O-])ccc21`, the log titer change, negative = inhibition was -3.82.
To `O=C(CSc1nc2ccccc2c(=O)n1-c1ccc(F)cc1F)Nc1ccc2c(c1)CCC2` belongs -3.82; to `COc1ccc(-c2csc(N(CCCN(C)C)C(=O)c3ccccc3Cl)n2)cc1`, -3.82.
The result for `O=C(CSc1nc2ccccc2c(=O)n1-c1ccc(F)cc1)Nc1ccc2c(c1)CCC2` reads -4.18.
As for `CCN(CC)CCCNC(=S)N1CCN(c2nc(-c3ccccc3)cs2)CC1`, the log titer change, negative = inhibition is -5.48.
The result for `COc1ccc(-c2csc(N(CCCN(C)C)C(=O)c3ccccc3C)n2)cc1` reads -0.48 (inactive).
The result for `OC1c2cc(Br)ccc2N=C2CCCN21` (stereo not given) reads -5.53.
`CN(C)CCCNC(=S)N1CCN(c2nc(-c3ccccc3)cs2)CC1`: the log titer change, negative = inhibition was -2.32.
To `CCOC(=O)C1(Cc2ccccc2C(F)(F)F)CCN(C2CCN(C(C)C)CC2)CC1` belongs 1.18 (inactive); to `O=C(CSc1nc2ccccc2c(=O)n1-c1ccc(F)cc1F)Nc1ccc(N2CCOCC2)cc1`, -4.15.
